# Laboratory results: patent US6909001B2 (Pharmacia Corporation, priority 2002, dated 2005)
# What was measured:
# [1] = test system: LPS-induced TNFα production; test: Lipopolysaccharide (LPS)-Induced TNFα Production (Rat LPS Assay); assay type: in vivo; conditions: at 20 mpk (IP)
# adjuvant arthritis = conditions: rat; cited from earlier work
# [2] = test system: collagen-induced arthritis; conditions: mouse; cited from earlier work
# endotoxin-induced shock = conditions: murine model of endotoxin-induced shock; cited from earlier work
# MK-2 = conditions: cited from earlier work
# granulomas = conditions: laboratory rats; cited from earlier work
smiles,measurement,setting,value
"N#Cc1c(N)nc2c(c1N)Cc1ccc(OCCN)cc1O2 [Example 12, 2,4-diamino-8-(2-aminoethoxy)-5H-chromeno[2,3-b]pyridine-3-carbonitrile]",Rat LPS Assay inhibition,[1],88%
C[S+]([O-])c1ccc(-c2nc(-c3ccncc3)c(-c3ccc(F)cc3)[nH]2)cc1 (stereo not drawn) [SB203580],development of adjuvant arthritis,adjuvant arthritis,inhibit the development
same,development of collagen-induced arthritis,[2],inhibit the development
same,mortality,endotoxin-induced shock,reduce mortality
same,inhibition of activation of MK-2,MK-2,inhibit activation of MK-2
Nc1nccc(-c2c(-c3ccc(F)cc3)ncn2C2CCNCC2)n1 [SB 220025],vascular density of granulomas,granulomas,significant dose-dependent decrease in vascular density of granulomas
